Reference: publication PMC12377202, “Design, synthesis, and cytotoxic evaluation of quinazoline-based derivatives as VEGER-2 inhibitors: comparative study against EGFR kinase activity, induction of apoptosis, and molecular docking study” (RSC Advances, 2025)

Experiments:
MCF-7 = test: MTT anti-proliferative assay, MCF-7; assay type: cell-based, human; settings: Homo sapiens, MCF7
HepG-2 = test: MTT anti-proliferative assay, HepG-2; assay type: cell-based, human; settings: Homo sapiens, HepG2
K-562 = test: MTT anti-proliferative assay, K-562; assay type: cell-based, human; settings: Homo sapiens, K562
caspase-3 = test: Caspase-3 expression level in HepG-2 cells; assay type: cell-based, human; settings: for Caspase-3 ± SE: HepG-2, at IC50 concentrations, control 0.460
Protocol: (§1) All synthesized compounds were tested at their cytotoxic concentrations in HepG-2 cells for analysis of gene expression levels of apoptotic markers caspase-3, caspase-9, TNF-α, and IL-6 proteins, and only two active compounds were tested for BAX and Bcl-2 proteins.
(§2) through Flow cytometric analysis.
(§3) Pellets were collected again and incubated with
(§4) Total RNA from vehicle-treated
(§5) (Thermo Scientific, USA).
(§6) All experiments were performed in […]

caspase-9 = test: Caspase-9 expression level in HepG-2 cells; assay type: cell-based, human; settings: for Caspase-9 ± SE: HepG-2, at IC50 concentrations, control 11.01
Protocol: as §1, §2, §3, §4, §5, §6

TNF-alpha = TNF-alpha level in HepG-2 cells; assay type: cell-based, human; settings: control 43.48
Protocol: as §1, §2, §3, §4, §5, §6

IL-6R = IL-6R level in HepG-2 cells; assay type: cell-based, human
Protocol: as §1, §2, §3, §4, §5, §6

EGFR = EGFR (Homo sapiens, UniProt P00533); test: EGFR kinase inhibition assay (ELISA kit)
Chain of EGFR (P00533 25-1210): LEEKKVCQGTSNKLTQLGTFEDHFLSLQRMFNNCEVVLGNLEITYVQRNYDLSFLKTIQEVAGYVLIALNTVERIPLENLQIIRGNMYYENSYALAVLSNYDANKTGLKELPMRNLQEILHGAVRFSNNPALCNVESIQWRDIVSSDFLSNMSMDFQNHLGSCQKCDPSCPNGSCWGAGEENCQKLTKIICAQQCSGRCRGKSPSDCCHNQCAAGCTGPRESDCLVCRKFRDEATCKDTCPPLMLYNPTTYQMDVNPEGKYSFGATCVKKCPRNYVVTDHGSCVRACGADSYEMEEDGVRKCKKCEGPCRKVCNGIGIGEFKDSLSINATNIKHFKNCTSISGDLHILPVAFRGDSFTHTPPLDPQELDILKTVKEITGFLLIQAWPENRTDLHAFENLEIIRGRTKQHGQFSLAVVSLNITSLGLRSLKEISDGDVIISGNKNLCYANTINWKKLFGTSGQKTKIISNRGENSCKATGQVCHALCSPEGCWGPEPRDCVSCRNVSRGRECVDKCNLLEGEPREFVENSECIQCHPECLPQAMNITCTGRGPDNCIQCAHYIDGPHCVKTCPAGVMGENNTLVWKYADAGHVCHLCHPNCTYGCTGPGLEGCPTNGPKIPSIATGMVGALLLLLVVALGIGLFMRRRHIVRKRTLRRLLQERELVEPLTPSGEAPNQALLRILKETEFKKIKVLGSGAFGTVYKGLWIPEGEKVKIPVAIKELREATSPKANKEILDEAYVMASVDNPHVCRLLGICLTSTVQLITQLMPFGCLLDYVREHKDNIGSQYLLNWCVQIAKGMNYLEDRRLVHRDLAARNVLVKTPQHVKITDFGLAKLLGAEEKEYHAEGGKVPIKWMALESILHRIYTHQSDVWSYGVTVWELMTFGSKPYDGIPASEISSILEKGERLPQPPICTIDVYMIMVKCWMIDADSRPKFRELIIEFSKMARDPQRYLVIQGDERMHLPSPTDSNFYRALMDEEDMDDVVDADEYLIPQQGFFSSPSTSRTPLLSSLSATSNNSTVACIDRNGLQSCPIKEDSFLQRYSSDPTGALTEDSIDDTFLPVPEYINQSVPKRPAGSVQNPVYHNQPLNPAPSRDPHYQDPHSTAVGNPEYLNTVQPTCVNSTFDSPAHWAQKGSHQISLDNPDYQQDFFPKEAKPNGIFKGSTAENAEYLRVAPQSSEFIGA

VEGFR-2 = VEGFR-2 (Homo sapiens, UniProt P35968); test: In vitro VEGFR-2 inhibitory assay (ELISA kit); settings: VEGFR-2 kinase
Chain of VEGFR-2 (P35968 20-1356): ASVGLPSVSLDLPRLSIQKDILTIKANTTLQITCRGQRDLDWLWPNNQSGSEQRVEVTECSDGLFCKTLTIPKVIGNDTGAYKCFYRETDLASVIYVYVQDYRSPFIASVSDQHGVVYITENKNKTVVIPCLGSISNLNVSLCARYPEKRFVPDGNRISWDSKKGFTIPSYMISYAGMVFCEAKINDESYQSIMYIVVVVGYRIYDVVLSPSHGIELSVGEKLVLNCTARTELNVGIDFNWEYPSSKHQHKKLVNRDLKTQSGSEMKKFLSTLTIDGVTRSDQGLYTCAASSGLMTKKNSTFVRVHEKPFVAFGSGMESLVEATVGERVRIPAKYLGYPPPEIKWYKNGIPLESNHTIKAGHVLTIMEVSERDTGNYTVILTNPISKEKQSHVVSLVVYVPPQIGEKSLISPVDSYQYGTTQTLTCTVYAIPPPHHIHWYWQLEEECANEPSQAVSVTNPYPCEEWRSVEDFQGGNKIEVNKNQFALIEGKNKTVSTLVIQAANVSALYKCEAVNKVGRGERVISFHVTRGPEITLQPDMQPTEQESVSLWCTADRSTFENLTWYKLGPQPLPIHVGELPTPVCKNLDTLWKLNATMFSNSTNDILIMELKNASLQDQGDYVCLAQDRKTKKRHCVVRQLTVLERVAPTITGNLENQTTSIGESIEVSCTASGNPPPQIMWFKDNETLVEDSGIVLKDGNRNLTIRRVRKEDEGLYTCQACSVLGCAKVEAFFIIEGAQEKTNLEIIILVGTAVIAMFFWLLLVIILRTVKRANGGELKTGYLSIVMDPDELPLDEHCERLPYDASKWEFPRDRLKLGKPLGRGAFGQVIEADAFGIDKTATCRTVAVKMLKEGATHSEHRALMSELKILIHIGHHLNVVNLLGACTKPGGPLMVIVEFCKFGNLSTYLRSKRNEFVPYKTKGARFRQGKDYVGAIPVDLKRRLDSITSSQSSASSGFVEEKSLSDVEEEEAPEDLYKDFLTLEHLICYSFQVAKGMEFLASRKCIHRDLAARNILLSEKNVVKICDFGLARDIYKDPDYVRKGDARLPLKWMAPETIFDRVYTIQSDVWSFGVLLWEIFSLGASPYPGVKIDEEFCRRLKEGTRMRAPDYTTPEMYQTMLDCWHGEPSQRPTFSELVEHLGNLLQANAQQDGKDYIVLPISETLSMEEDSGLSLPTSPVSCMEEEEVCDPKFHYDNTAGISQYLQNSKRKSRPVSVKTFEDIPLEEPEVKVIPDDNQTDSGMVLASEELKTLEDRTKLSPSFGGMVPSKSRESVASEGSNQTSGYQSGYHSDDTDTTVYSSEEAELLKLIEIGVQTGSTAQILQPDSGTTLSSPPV

In the case of O=C(Cn1cnc2cc(Cl)ccc2c1=O)Nc1ccccc1Cl [8b, 2-(7-Chloro-4-oxoquinazolin-3(4H)-yl)-N-(2-chlorophenyl)acetamide], the viability at 0.195 µmol (MCF-7; MCF-7, 0.195 umol) is reported as 47.8%, the cytotoxicity at 0.195 µmol (MCF-7; MCF-7, 0.195 umol, read-out: Toxicity %) is reported as 52.2% and the viability at 0.391 µmol (MCF-7; MCF-7, 0.391 umol) is reported as 28.6%. For the same molecule, the cytotoxicity at 0.391 µmol (MCF-7; MCF-7, 0.391 umol, read-out: Toxicity %) was 71.4%, the viability at 0.781 µmol (MCF-7; MCF-7, 0.781 umol) was 14.1% and the cytotoxicity at 0.781 µmol (MCF-7; MCF-7, 0.781 umol, read-out: Toxicity %) was 85.9%. It also gave a viability at 1.563 µmol (MCF-7; MCF-7, 1.563 umol) of 12%, a cytotoxicity at 1.563 µmol (MCF-7; MCF-7, 1.563 umol, read-out: Toxicity %) of 88% and a viability at 3.125 µmol (MCF-7; MCF-7, 3.125 umol) of 9.81%. For the same molecule, the cytotoxicity at 3.125 µmol (MCF-7; MCF-7, 3.125 umol, read-out: Toxicity %) was 90.2%, the viability at 6.25 µmol (MCF-7; MCF-7, 6.25 umol) was 8.27% and the cytotoxicity at 6.25 µmol (MCF-7; MCF-7, 6.25 umol, read-out: Toxicity %) was 91.7%. It also gave a viability at 12.5 µmol (MCF-7; MCF-7, 12.5 umol) of 6.86%, a cytotoxicity at 12.5 µmol (MCF-7; MCF-7, 12.5 umol, read-out: Toxicity %) of 93.1% and a viability at 25 µmol (MCF-7; MCF-7, 25 umol) of 6.68%. The cytotoxicity at 25 µmol (MCF-7; MCF-7, 25 umol, read-out: Toxicity %) was 93.3%, the IC50 (MCF-7; MTT, MCF-7, read-out: Cytotoxicity against cancer cells IC50 MCF-7) was 191 ± 4 nM and the viability at 0.195 µg/mL (HepG-2; HepG-2, 0.195 ug/ml) was 52.9%. The cytotoxicity at 0.195 µg/mL (HepG-2; HepG-2, 0.195 ug/ml, read-out: Toxicity %) was 47.1%, the viability at 0.391 µg/mL (HepG-2; HepG-2, 0.391 ug/ml) was 33.3% and the cytotoxicity at 0.391 µg/mL (HepG-2; HepG-2, 0.391 ug/ml, read-out: Toxicity %) was 66.7%. For the same molecule, the viability at 0.781 µg/mL (HepG-2; HepG-2, 0.781 ug/ml) was 27.5%, the cytotoxicity at 0.781 µg/mL (HepG-2; HepG-2, 0.781 ug/ml, read-out: Toxicity %) was 72.5% and the viability at 1.563 µg/mL (HepG-2; HepG-2, 1.563 ug/ml) was 13.7%. The cytotoxicity at 1.563 µg/mL (HepG-2; HepG-2, 1.563 ug/ml, read-out: Toxicity %) was 86.3%, the viability at 3.125 µg/mL (HepG-2; HepG-2, 3.125 ug/ml) was 9.67% and the cytotoxicity at 3.125 µg/mL (HepG-2; HepG-2, 3.125 ug/ml, read-out: Toxicity %) was 90.3%. The viability at 6.25 µg/mL (HepG-2; HepG-2, 6.25 ug/ml) was 8.39%, the cytotoxicity at 6.25 µg/mL (HepG-2; HepG-2, 6.25 ug/ml, read-out: Toxicity %) was 91.6% and the viability at 12.5 µg/mL (HepG-2; HepG-2, 12.5 ug/ml) was 7.03%. For the same molecule, the cytotoxicity at 12.5 µg/mL (HepG-2; HepG-2, 12.5 ug/ml, read-out: Toxicity %) was 93%, the viability at 25 µg/mL (HepG-2; HepG-2, 25 ug/ml) was 5.68% and the cytotoxicity at 25 µg/mL (HepG-2; HepG-2, 25 ug/ml, read-out: Toxicity %) was 94.3%. It also gave an IC50 (HepG-2; MTT, HepG-2, read-out: Cytotoxicity against cancer cells IC50 HepG-2) of 224.2 ± 1.7 nM, a viability at 0.195 µmol (K-562; K-562, 0.195 umol) of 82.7% and a cytotoxicity at 0.195 µmol (K-562; K-562, 0.195 umol, read-out: Toxicity %) of 17.3%. The viability at 0.391 µmol (K-562; K-562, 0.391 umol) was 55.2%, the cytotoxicity at 0.391 µmol (K-562; K-562, 0.391 umol, read-out: Toxicity %) was 44.8% and the viability at 0.781 µmol (K-562; K-562, 0.781 umol) was 27.4%. The cytotoxicity at 0.781 µmol (K-562; K-562, 0.781 umol, read-out: Toxicity %) was 72.6%, the viability at 1.563 µmol (K-562; K-562, 1.563 umol) was 16.4% and the cytotoxicity at 1.563 µmol (K-562; K-562, 1.563 umol, read-out: Toxicity %) was 83.6%. For the same molecule, the viability at 3.125 µmol (K-562; K-562, 3.125 umol) was 11.1%, the cytotoxicity at 3.125 µmol (K-562; K-562, 3.125 umol, read-out: Toxicity %) was 88.9% and the viability at 6.25 µmol (K-562; K-562, 6.25 umol) was 8.54%. The cytotoxicity at 6.25 µmol (K-562; K-562, 6.25 umol, read-out: Toxicity %) was 91.5%, the viability at 12.5 µmol (K-562; K-562, 12.5 umol) was 7.8% and the cytotoxicity at 12.5 µmol (K-562; K-562, 12.5 umol, read-out: Toxicity %) was 92.2%. The viability at 25 µmol (K-562; K-562, 25 umol) was 6.69%, the cytotoxicity at 25 µmol (K-562; K-562, 25 umol, read-out: Toxicity %) was 93.3% and the IC50 (K-562; MTT, K-562, read-out: Cytotoxicity against cancer cells IC50 K-562) was 464.2 ± 3 nM. For the same molecule, the “Caspase-3 ± SE” value (caspase-3) was 1.10 ± 0.046 ng/mL, the “Caspase-3 ± SE” value (caspase-3; listed as R3) was 1.10 ng/mL and the “caspase-3 expression level, fold increase” value (caspase-3; HepG-2, vs control cells) was 2.40 fold. The “Caspase-9 ± SE” value (caspase-9) was 83.31 ± 1.28 ng/L, the “Caspase-9 ± SE” value (caspase-9; listed as R3) was 83.31 ng/L and the “caspase-9 expression level, fold increase” value (caspase-9; HepG-2, vs control cells) was 7.5 fold. The “TNF-alpha ±SE” value (TNF-alpha; HepG-2, at IC50 concentrations) was 23.47 ± 0.56 ng/L, the “TNF-alpha ±SE” value (TNF-alpha; raw data, HepG2) was 16.86 ng/L and the “IL-6R ± SE” value (IL-6R; HepG-2, at IC50 concentrations, control 44.10) was 24.59 ± 0.95 ng/L. The IL-6R protein level (IL-6R; HepG-2, control 44.10%) was 24.59 ng/L, the “IL-6 ±SE” value (IL-6R; raw data, HepG2, control 44.10) was 11.87 ng/L and the Activity % (EGFR; HepG2) was 16.278%. It also gave an Inhibition % (EGFR; HepG2) of 83.722%, an Activity % (EGFR; K-562) of 17.305% and an Inhibition % (EGFR; K-562) of 82.695%. For the same molecule, the Activity % (EGFR; MCF7) was 18.736%, the Inhibition % (EGFR; MCF7) was 81.264% and the Activity % (VEGFR-2; HepG2) was 11.673%. It also gave an Inhibition % (VEGFR-2; HepG2) of 88.327%, an Activity % (VEGFR-2; K-562) of 21.332% and an Inhibition % (VEGFR-2; K-562) of 78.668%. The Activity % (VEGFR-2; MCF7) was 19.260% and the Inhibition % (VEGFR-2; MCF7) was 80.740%.
